Columns and labels:
[1] = Inhibition of bovine recombinant neuronal NOS by hemoglobin capture assay; parameters: species or system Bos taurus
[2] = biological target: T1, Nitric oxide synthase 3 (Bos taurus, UniProt P29473); experiment: Inhibition of bovine recombinant endothelial NOS by hemoglobin capture assay
T1 sequence (P29473 whole entry): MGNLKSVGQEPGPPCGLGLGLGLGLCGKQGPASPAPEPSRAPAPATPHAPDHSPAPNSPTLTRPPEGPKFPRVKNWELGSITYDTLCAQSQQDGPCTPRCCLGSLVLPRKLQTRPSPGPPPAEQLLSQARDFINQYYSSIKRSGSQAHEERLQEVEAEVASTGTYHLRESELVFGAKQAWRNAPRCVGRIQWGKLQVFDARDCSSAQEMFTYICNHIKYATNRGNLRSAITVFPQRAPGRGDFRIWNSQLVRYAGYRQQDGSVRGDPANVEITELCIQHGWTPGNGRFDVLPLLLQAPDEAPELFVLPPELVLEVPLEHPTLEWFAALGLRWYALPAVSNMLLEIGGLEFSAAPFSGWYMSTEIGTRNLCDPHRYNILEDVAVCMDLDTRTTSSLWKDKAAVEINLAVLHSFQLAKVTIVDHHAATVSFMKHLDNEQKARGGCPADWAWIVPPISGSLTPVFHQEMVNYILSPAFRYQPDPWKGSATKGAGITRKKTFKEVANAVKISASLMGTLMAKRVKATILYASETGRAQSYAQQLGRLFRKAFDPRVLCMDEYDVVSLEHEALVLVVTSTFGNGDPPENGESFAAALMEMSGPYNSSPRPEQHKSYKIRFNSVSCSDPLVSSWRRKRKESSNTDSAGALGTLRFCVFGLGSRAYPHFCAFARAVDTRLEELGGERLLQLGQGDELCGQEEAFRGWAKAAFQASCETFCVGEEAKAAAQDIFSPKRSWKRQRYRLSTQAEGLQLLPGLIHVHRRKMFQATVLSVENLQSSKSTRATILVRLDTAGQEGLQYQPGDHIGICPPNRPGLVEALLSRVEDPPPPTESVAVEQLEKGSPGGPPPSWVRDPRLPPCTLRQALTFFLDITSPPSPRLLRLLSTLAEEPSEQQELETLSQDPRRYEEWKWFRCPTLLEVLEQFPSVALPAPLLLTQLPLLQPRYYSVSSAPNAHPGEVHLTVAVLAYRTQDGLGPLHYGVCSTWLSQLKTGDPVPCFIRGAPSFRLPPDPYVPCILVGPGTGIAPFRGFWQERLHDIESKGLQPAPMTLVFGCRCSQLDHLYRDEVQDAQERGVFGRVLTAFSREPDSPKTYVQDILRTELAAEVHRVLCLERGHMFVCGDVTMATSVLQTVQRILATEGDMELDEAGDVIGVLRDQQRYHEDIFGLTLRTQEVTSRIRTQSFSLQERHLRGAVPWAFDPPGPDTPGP

[3] = biological target: T2, Nitric oxide synthase, inducible (Mus musculus, UniProt P29477); experiment: Inhibition of mouse recombinant inducible NOS by hemoglobin capture assay
T2 sequence (P29477 whole entry): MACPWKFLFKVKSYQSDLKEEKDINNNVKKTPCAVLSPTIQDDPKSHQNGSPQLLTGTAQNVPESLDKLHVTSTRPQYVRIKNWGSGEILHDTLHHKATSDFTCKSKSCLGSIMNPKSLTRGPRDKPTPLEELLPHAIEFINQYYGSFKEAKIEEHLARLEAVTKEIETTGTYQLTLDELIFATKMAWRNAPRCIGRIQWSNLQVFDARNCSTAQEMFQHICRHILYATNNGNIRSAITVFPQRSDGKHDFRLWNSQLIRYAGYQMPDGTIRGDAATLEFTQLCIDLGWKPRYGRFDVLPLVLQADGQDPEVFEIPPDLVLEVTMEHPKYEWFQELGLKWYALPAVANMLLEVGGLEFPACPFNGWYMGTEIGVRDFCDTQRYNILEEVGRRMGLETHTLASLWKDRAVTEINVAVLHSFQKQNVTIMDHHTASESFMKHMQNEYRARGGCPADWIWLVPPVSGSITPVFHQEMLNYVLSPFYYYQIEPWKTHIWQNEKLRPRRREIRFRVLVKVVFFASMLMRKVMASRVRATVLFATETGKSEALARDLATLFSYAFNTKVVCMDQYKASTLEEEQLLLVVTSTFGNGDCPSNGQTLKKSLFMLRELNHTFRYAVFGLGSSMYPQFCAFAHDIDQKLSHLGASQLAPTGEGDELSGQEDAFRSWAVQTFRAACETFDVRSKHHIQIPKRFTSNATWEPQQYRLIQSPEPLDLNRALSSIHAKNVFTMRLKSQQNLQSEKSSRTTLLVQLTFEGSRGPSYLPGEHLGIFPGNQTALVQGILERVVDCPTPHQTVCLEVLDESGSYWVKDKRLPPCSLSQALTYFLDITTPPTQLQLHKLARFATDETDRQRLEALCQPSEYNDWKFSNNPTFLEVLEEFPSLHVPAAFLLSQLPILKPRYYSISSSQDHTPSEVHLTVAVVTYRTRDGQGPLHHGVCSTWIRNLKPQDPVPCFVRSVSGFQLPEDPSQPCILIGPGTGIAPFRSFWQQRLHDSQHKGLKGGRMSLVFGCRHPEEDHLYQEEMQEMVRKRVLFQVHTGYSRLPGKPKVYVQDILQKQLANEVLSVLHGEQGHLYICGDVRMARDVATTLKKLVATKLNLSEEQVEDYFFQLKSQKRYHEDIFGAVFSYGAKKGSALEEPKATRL

| SMILES | Ki [1] [nM] | Ki [2] [µM] | Ki [3] [µM] |
| --- | --- | --- | --- |
| NC(=O)[C@@H]1C[C@@H](NC(=O)[C@@H](N)CCC/N=C(\N)N[N+](=O)[O-])CN1 | 330 | – | – |
| N=C(NCCC[C@H](N)CN(N)CCN)N[N+](=O)[O-] | 560 | 103 | 37 |
| N=C(NCCC[C@H](N)CN(O)CCN)N[N+](=O)[O-] | 120 | 73 | 16 |
| N=C(NCCC[C@H](N)C(=O)N(O)[C@H]1CN[C@H](C(N)=O)C1)N[N+](=O)[O-] | 310 | 35 | 16 |
| N=C(NCCC[C@H](N)C(=O)O)N[N+](=O)[O-] [NITROARGININE] | – | – | 4.28 |

From ChEMBL document CHEMBL1147156, “Structure-based design and synthesis of N(omega)-nitro-L-arginine-containing peptidomimetics as selective inhibitors of neuronal nitric oxide synthase. Displacement of the heme structural water” (J Med Chem, 2007)
